Data on ten compounds can be found in PubChem BioAssay (NCI).

Some test systems named below: SF-539 CNS; U251 CNS; CAKI-1 renal; EKVX NSCLC; HS 578T breast; OVCAR-8 ovarian; SK-MEL-28 melanoma; SK-MEL-5 melanoma; OVCAR-4 ovarian; RPMI-8226 leukemia; OVCAR-5 ovarian; M14 melanoma; SF-268 CNS; A498 renal.
What all share (experiment): NCI anticancer screen, dose series, 48 h

SMILES strings stand for the structures.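 Method: 48-hour compound exposure of cells in 96-well plates, five concentrations, linear interpolation of endpoints. The concentration for full growth arrest is given as TGI.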 A value given as a limit tells only on which side of the number the result lay.

With `Cc1cc(S(=O)(=O)Nc2nc3ccccc3n2-c2ccccc2)c(S)cc1Cl`, the TGI in the test on SF-539 CNS, in the test with U251 CNS, in the test with CAKI-1 renal, with EKVX NSCLC, with HS 578T breast and in the test on OVCAR-8 ovarian was over 100 µM throughout. For the same compound, the TGI in the test with SK-MEL-28 melanoma, in the test on SK-MEL-5 melanoma, in the test on OVCAR-4 ovarian, in the test on RPMI-8226 leukemia, in the test with OVCAR-5 ovarian and in the test with M14 melanoma was over 100 µM in each case. This compound also returned a TGI with SF-268 CNS of over 100 µM.

Take `CSCCCNC(=O)c1csc(-c2csc(CCNC(=O)CNC(=O)CNC(=O)CNC(=O)OC(C)(C)C)n2)n1`: the TGI with SF-539 CNS, in the test with U251 CNS, in the test on CAKI-1 renal, with EKVX NSCLC, in the test with HS 578T breast and in the test on OVCAR-8 ovarian was over 100 µM each time. Moreover, the TGI in the test on SK-MEL-28 melanoma, in the test with A498 renal, with SK-MEL-5 melanoma, with OVCAR-4 ovarian, with OVCAR-5 ovarian and in the test with M14 melanoma was over 100 µM throughout. In the test with SF-268 CNS, this compound gave a TGI of over 100 µM.

`Cc1nn(C(=O)c2ccncc2)c2c1C(c1cccc([N+](=O)[O-])c1)SC(N)=N2` (configuration not stated): the TGI in the test on SF-539 CNS, in the test with U251 CNS, in the test with CAKI-1 renal, in the test with EKVX NSCLC, with HS 578T breast and in the test with OVCAR-8 ovarian was over 10 µM throughout. Further, the TGI in the test with SK-MEL-28 melanoma, in the test on SK-MEL-5 melanoma, in the test with OVCAR-4 ovarian, in the test with RPMI-8226 leukemia, in the test on OVCAR-5 ovarian and with M14 melanoma was over 10 µM throughout. The same compound came in with a TGI with SF-268 CNS of over 10 µM.

`COC(=O)/C=C/c1cc(OC)c2oc(-c3ccc(OC)c(OC)c3)c(C(=O)OC)c2c1`: the TGI in the test on U251 CNS, in the test with CAKI-1 renal, in the test on EKVX NSCLC, in the test with HS 578T breast, in the test with OVCAR-8 ovarian and with SK-MEL-28 melanoma was over 100 µM in each case. Besides, the TGI with A498 renal, in the test with SK-MEL-5 melanoma, in the test with OVCAR-4 ovarian, in the test with RPMI-8226 leukemia, in the test with OVCAR-5 ovarian and in the test on M14 melanoma was over 100 µM throughout. In the test on SF-268 CNS, this compound had a TGI of over 100 µM.

As to `CC1=C[C@@H](C)C[C@]2(C)CC[C@H](O2)[C@]23CC[C@](C)(C[C@H](O2)[C@@H]2O[C@@](C)(CC2=O)[C@@H](O)[C@H]2CC[C@@]4(CCC[C@@H](O4)[C@H](C)C(=O)O[C@H]4C[C@H]([C@]5(O)OCC[C@H](C)[C@@H]5O)O[C@H]4C=C1)O2)O3`, the TGI is 0.00503 µM in the test on SF-539 CNS; over 10 µM in the test on U251 CNS; 0.00515 µM with CAKI-1 renal; 0.128 µM in the test with EKVX NSCLC; 0.00214 µM in the test with HS 578T breast; over 10 µM in the test with OVCAR-8 ovarian. Moreover, the TGI was 0.0233 µM in the test on SK-MEL-28 melanoma; 0.005 µM in the test on A498 renal; 0.0212 µM with SK-MEL-5 melanoma; over 10 µM with OVCAR-5 ovarian; 0.0219 µM with SF-268 CNS.

On to `CSc1ncc2c(n1)-c1ccccc1OC2NC(C)(C)C` (configuration not stated), for which the TGI in the test with SF-539 CNS, in the test on U251 CNS, in the test with CAKI-1 renal, with EKVX NSCLC, in the test with HS 578T breast and in the test on OVCAR-8 ovarian was over 100 µM in each case. In addition, the TGI in the test on SK-MEL-28 melanoma is over 100 µM; in the test on A498 renal it was 7.36 µM; with OVCAR-4 ovarian it was over 100 µM; in the test with RPMI-8226 leukemia, over 100 µM; in the test on OVCAR-5 ovarian it was over 100 µM; in the test with M14 melanoma, over 100 µM. For the same compound, the TGI with SF-268 CNS is over 100 µM.

As to `COc1cc([C@H]2Oc3c(OC)cc(CCCO)cc3[C@@H]2CO)ccc1O`, the TGI in the test with SF-539 CNS, in the test on U251 CNS, with EKVX NSCLC, with HS 578T breast, in the test with OVCAR-8 ovarian and in the test with SK-MEL-28 melanoma was over 100 µM each time. Also, the TGI in the test on A498 renal, in the test with SK-MEL-5 melanoma, with OVCAR-4 ovarian, with RPMI-8226 leukemia, in the test with OVCAR-5 ovarian and with M14 melanoma was over 100 µM throughout. The TGI in the test with SF-268 CNS is over 100 µM.

Regarding `O=S1(=O)C(c2ccccc2)=C(O)c2ccccc21`, the TGI in the test on SF-539 CNS, in the test with U251 CNS, with EKVX NSCLC, in the test on HS 578T breast, with OVCAR-8 ovarian and with SK-MEL-28 melanoma was over 100 µM each time. The TGI in the test with A498 renal, in the test on SK-MEL-5 melanoma, in the test with OVCAR-4 ovarian, with RPMI-8226 leukemia, in the test with OVCAR-5 ovarian and in the test with M14 melanoma was over 100 µM each time. This compound also came in with a TGI in the test on SF-268 CNS of over 100 µM.

For the compound `CC(=O)C12C[C@](C#N)(N3CCCCCC3)C1C=Cc1ccccc12` (some centres not stated), the TGI in the test with SF-539 CNS, with U251 CNS, in the test with CAKI-1 renal, in the test with EKVX NSCLC, with HS 578T breast and with OVCAR-8 ovarian was over 100 µM throughout. For the same compound, the TGI with SK-MEL-28 melanoma, in the test on SK-MEL-5 melanoma, in the test with OVCAR-4 ovarian, in the test on RPMI-8226 leukemia, with M14 melanoma and in the test with SF-268 CNS was over 100 µM in each case.

As for `CC(C)C(C/C=C1/CC(CO)(COC(=O)C2CCCCC2)OC1=O)C(C)C` (configuration not stated), the TGI with SF-539 CNS came out at 29.1 µM; in the test with U251 CNS, 43.9 µM; with CAKI-1 renal it was 37.8 µM; with EKVX NSCLC it was 42.8 µM; in the test with HS 578T breast, 43.5 µM; in the test on OVCAR-8 ovarian, 32.7 µM. Besides, the TGI is 35.1 µM with SK-MEL-28 melanoma; 76.2 µM in the test with A498 renal; over 100 µM with SK-MEL-5 melanoma; 41.4 µM in the test on OVCAR-4 ovarian; 40.7 µM in the test with OVCAR-5 ovarian; 38.8 µM in the test on M14 melanoma. In the test with SF-268 CNS, this compound gave a TGI of 33.8 µM.
